Source: BindingDB's records for patent US20240294551 (Amgen, 2024)

Assays:
GTPase KRas [G12D] = GTPase KRas [G12D] (Homo sapiens, UniProt P01116, G12D); assay: TR-FRET Assay
Protocol: Compounds of interest were prepared in a dose-response titration in DMSO, and 80 nL were added via Labcyte Echo to each well of a 384-well plate (Perkin Elmer 6008280). The His-tagged KRAS G12D protein (Amgen) was diluted to 20 nM in Assay Buffer (20 mM HEPES, pH 7.4, 10 mM MgCl2, 50 mM NaCl, 0.1% BSA, 0.01% Tween-20, 10 μM GDP) and 2 μL was added to the appropriate wells of the 384-well plate. The plate was incubated for 30 minutes at room temperature. Biotinylated KRPep-2d substrate (Amgen) was diluted to 20 nM in Assay Buffer and 2 μL was added to all wells and incubated for 1 hour at room temperature. Detection Reagent (0.4 nM LANCE Eu-W1024 Anti-6×His (Perkin Elmer AD0401), 5 nM streptavidin-d2 (Cisbio 610SADLA)) was prepared in Assay Buffer, then 4 μL was added to the plate and incubated for 1 hour at room temperature. Plates were read using PerkinElmer EnVision (ex: 320 nm, em1: 665 nm, em2: 615 nm) and em1/em2 data was used to generate curve fits using a 4-parameter logistic model to calculate IC50 values.

GTPase KRas [G12D,C118A] = GTPase KRas [G12D,C118A] (Homo sapiens, UniProt P01116, C118A/G12D); assay: Coupled Nucleotide Exchange Assay
Protocol: Following compound pre-incubation, purified SOS protein (aa 564-1049) and GTP (Roche 10106399001) were added to the assay wells and incubated for an additional 30 min. To determine the extent of inhibition of SOS-mediated nucleotide exchange, purified GST-tagged cRAF (aa 1-149), nickel chelate AlphaLISA acceptor beads (PerkinElmer AL108R), and AlphaScreen glutathione donor beads (PerkinElmer 6765302) were added to the assay wells and incubated for 10 minutes. The assay plates were then read on a PerkinElmer EnVision Multilabel Reader, using AlphaScreen technology, and data were analyzed using a 4-parameter logistic model to calculate IC50 values.

GTPase KRas [G12D], sequence (P01116 whole entry G12D): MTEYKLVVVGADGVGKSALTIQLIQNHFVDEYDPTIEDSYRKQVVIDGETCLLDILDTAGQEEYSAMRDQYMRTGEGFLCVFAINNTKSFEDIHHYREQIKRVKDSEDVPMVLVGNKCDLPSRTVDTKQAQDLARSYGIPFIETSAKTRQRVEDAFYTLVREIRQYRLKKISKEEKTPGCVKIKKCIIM
GTPase KRas [G12D,C118A], sequence (P01116 whole entry G12D/C118A, looked up, the tested form may be a part): as the sequence (P01116 whole entry G12D) above, with C118A counted along it

IC50 (GTPase KRas [G12D]) [nM] | IC50 (GTPase KRas [G12D,C118A]) [nM] | SMILES
20 | 13 | Cc1cc2[nH]ncc2c2c1CCCOC(=O)N1CC[C@@H]3CCN(C[C@@H]31)c1nc(OC[C@@]34CCCN3C[C@H](F)C4)nc3c(F)c-2ncc13 (mixture of isomers) [US20240294551, Example 75]
3 | 2 | Cc1cc2[nH]ncc2c2c1CCCOC(=O)O[C@@H]1COCCN(C1)c1nc(OC[C@@]34CCCN3C[C@H](F)C4)nc3c(F)c-2c(F)cc13 [US20240294551, Example 102]
3 | 2 | Fc1c2ncc3c(nc(OC[C@@]45CCCN4C[C@H](F)C5)nc13)N1CCC[C@@H](CSCCCCc3c(Cl)cc4[nH]ncc4c3-2)C1 [US20240294551, Example 143]
2 | 1 | Fc1c2ncc3c(nc(OC[C@@]45CCCN4C[C@H](F)C5)nc13)N1CCC[C@H](C1)c1coc(n1)CCCc1c(Cl)cc3[nH]ncc3c1-2 [US20240294551, Example 157]
4 | 2 | Cc1cc2[nH]ncc2c2c1CCCOC(=O)O[C@@H]1COCCN(C1)c1nc(OC[C@@]34CCCN3C[C@H](F)C4)nc3c(F)c-2ccc13 [US20240294551, Example 192]
4 | 2 | CN(C)CC1(COc2nc3c4cnc(c(F)c4n2)-c2c(c(Cl)cc4[nH]ncc24)CCCOC(=O)O[C@@H]2COCCN3C2)CC1 [US20240294551, Example 195]
5 | 1 | Fc1c2ncc3c(nc(OC[C@@]45CCCN4C[C@H](F)C5)nc13)N1CCOC[C@H](C1)c1noc(n1)CCCc1c(Cl)cc3[nH]ncc3c1-2 [US20240294551, Example 381]
10 | 6 | O[C@@H]1CCOCCc2c(Cl)cc3[nH]ncc3c2-c2ncc3c(nc(OC[C@@]45CCCN4C[C@H](F)C5)nc3c2F)N2CCC[C@@H]1C2 [US20240294551, Example 404]
